# Measured values: patent US7951775B2, “Methods and pharmaceutical compositions for GnRH-I and GnRH-II modulation of T-cell activity, adhesion, migration and extravasation” (priority 2001, dated 2011)
# Where a SMILES comes first, the peptide text is derived from it. [ ]: non-standard residue; d: D form. dPhe(4-Cl) = N[C@H](Cc1ccc(Cl)cc1)C(=O)O; d2Nal = N[C@H](Cc1ccc2ccccc2c1)C(=O)O; dCit = NC(=O)NCCC[C@@H](N)C(=O)O; d3Pal = N[C@H](Cc1cccnc1)C(=O)O
# Legend:
# [1] = test system: normal human T-cells; test: Quantitative RT-PCR of 67 kDa laminin receptor mRNA in T-cells; assay type: cell-based
# [2] = test system: normal human T-cells; test: Double immunofluorescence staining (FACS) for surface 67 kDa laminin receptor and TCR; assay type: cell-based
# Method: Normal human T-cells, isolated from fresh peripheral blood lymphocytes, or EL-4 T-lymphocyte cells were subjected to double immunofluorescence staining, using a mouse monoclonal anti-67 kDa LR antibody (100 μl of 1:20 dilution per 1×10^6 cells/tube; 30 minutes on ice), or normal mouse sera for control. The cells were then stained with an FITC-conjugated goat anti-mouse IgG (100 μl of 1:100 dilution), and PE-conjugated mouse anti-human TCR αβ mAb (2 μl of stock). Cells that were stained only with the second and third antibodies served as additional negative controls. Fluorescence profiles were recorded in a FACSORT. To determine whether GnRH-II and GnRH-I trigger not only the gene transcription but also the surface expression of the 67 kDa LR, normal human T-cells were treated with either GnRH-II or GnRH-I for 18-66 h and subjected to double immunofluorescence staining using a monoclonal antibody (mAb) that is specific for the 67 kDa LR, and a phycoerythrin (PE)-conjugated anti-TCRαβ mAb (to confirm the T-cell origin of the cells). FIGS. 2A-2C show the staining for the untreated, GnRH-I treated and GnRH-II treated T-cells, respectively. The FACS profiles can be interpreted by division according to four categories: 1. Negative staining for both mAbs (double negative, lower left quadrant); 2. Single positive staining only with the anti-LR mAb (lower right quadrant), 3. Single positive staining only with the anti-TCR mAb (upper left quadrant); 4. Double positive staining with both mAbs (upper right quadrant). […] In different experiments, each using freshly isolated T-cells from a different human donor, both GnRH II and GnRH I repeatedly elevated the laminin receptor expression level, but the magnitude of elevation varied within a range of 6-40%. Such variations between T-cell populations originating from different donors are often observed in respect to various T-cell features and functions.
smiles,measurement,setting,value
"CC(=O)N[C@H](Cc1ccc2ccccc2c1)C(=O)N[C@H](Cc1ccc(Cl)cc1)C(=O)N[C@H](Cc1cccnc1)C(=O)N[C@@H](CO)C(=O)N[C@@H](Cc1ccc(O)cc1)C(=O)N[C@H](CCCNC(N)=O)C(=O)N[C@@H](CC(C)C)C(=O)N[C@@H](CCCNC(=N)N)C(=O)N1CCC[C@H]1C(=O)N[C@H](C)C(N)=O [Cetrorelix, reference compound] (Ac-[d2Nal][dPhe(4-Cl)][d3Pal]SY[dCit]LRP[dA]-NH2)",block of GnRH-I induced upregulation in gene expression of the 67 kDa LR,[1]; 100 nM Cetrorelix + 10 nM GnRH-I (FIG. 2D),blocked
same,block of GnRH-II effect on gene expression of the 67 kDa LR,[1]; 100 nM Cetrorelix + 10 nM GnRH-II (FIG. 2D),did not block
same,block of GnRH-I induced upregulation in surface expression of the 67 kDa LR,[2]; 100 nM Cetrorelix + 10 nM GnRH-I (FIG. 2E),blocked
same,block of GnRH-II effect on surface expression of the 67 kDa LR,[2]; 100 nM Cetrorelix + 10 nM GnRH-II (FIG. 2E),did not block
